Measured values published in US10022442B2, “Pyrazolopyrimidine compounds” (GlaxoSmithKline LLC, priority 2012, dated 2018).
Where a name gives a salt, the structure may show the parent alone.

Legend:
Interferon-α = assay: Induction of Interferon-α using fresh human whole blood (WB); assay type: cell-based; conditions: three donors, overnight incubation, cytokine released as % of 2 μM resiquimod control, read-out: mean pEC50 for IFNα (converted)
Method: (§1) Assay for the Induction of Interferon-α and TNF-α using Fresh Human Whole Blood (WB)
(§2) Compounds were prepared at 100× required concentration in DMSO in flat-bottom microtitre plates at a volume of 1.5 μL. Columns 1-10 contained a 1 in 4 serial dilution of the test compound. Included on each plate was a serial dilution of the TLR7/8 agonist resiquimod as a standard and Column 11 contained 1.5 μl of 200 μM resiquimod (giving a 2 μM final concentration, used to define the approximate maximal response to resiquimod). Each compound was assayed in duplicate for each donor.
(§3) Incubation and Assays for Interferon-α and TNF-α
(§4) Blood samples from three human donors were collected into sodium heparin (10 U/ml). 150 μl of whole Blood was dispensed into Col 1 to 11 of assay plates containing 1.5 μl of test compound or standard in DMSO. Plates were placed in an incubator overnight (37° C., 95% air, 5% CO2). Following the overnight incubation, plates were removed from the incubator & mixed on an orbital shaker for approximately 1 minute. 100 μl of 0.9% saline was added to each well and the plates mixed again on an orbital shaker. Plates were then centrifuged (2500 rpm, 10 mins), after which a sample of plasma was removed using a Biomek FX and assayed for both IFN-α and TNF-α using the MSD (Mesoscale Discovery) electrochemiluminescence assay platform. The IFN-α assay was carried out similarly to that described above. The TNF-α assay was carried out as per kit instructions (Cat No K111BHB).
(§5) Cytokine released was expressed as a percentage of the 2 μM resiquimod control (column 11). This percentage was plotted against compound concentration and the pEC50 for the response determined by non-linear least squares curve fitting. For the IFN-α responses, generally a 4 parameter logistic model was selected. For the TNF responses where a clear maximum response was obtained (i.e. a well defined plateau in the response was observed) then a 4 parameter model was generally used. If the upper asymptote of the curve wasn't well defined then the curve fitting was generally constrained to a maximal response of 100% (i.e. to the response to 2 μM resiquimod) or to the response of the highest concentration tested if this was greater than the resiquimod response. Some curves were bell shaped for one or both cytokines and the cytokine data on the down slope of the bell shaped response (i.e. concentrations above those giving the maximal response) were generally excluded from the fit, usually with the exception of the concentration immediately above the peak response. Curve fitting thus concentrated on the up slope of the dose response curve.

TNF-α = assay: Induction of TNF-α using fresh human whole blood (WB); assay type: cell-based; conditions: three donors, overnight incubation, cytokine released as % of 2 μM resiquimod control, read-out: mean pEC50 for TNF-α (converted)
Method: as §1, §2, §3, §4, §5

EC50 (Interferon-α) [nM] | EC50 (TNF-α) [nM] | SMILES
≤ 1260 | ≥ 3980 | CCCCc1nc(N)c2[nH]nc(CCCCCCN3CCCCC3)c2n1 [Example 1, 5-Butyl-3-(6-(piperidin-1-yl)hexyl)-1H-pyrazolo[4,3-d]pyrimidin-7-amine formate]
≤ 1260 | ≥ 3980 | CCCCc1nc(N)c2[nH]nc(CCCCCN3CCCCC3)c2n1 [Example 5, 5-Butyl-3-(5-(piperidin-1-yl)pentyl)-1H-pyrazolo[4,3-d]pyrimidin-7-amine]
≤ 1260 | ≥ 3980 | CCCCc1nc(N)c2[nH]nc(CCCCCCCN3CCCCC3)c2n1 [Example 7, 5-Butyl-3-(7-(piperidin-1-yl)heptyl)-1H-pyrazolo[4,3-d]pyrimidin-7-amine]
≤ 1260 | ≥ 3980 | CCCCc1nc(N)c2[nH]nc(CCCCCCCN3CCCC3)c2n1 [Example 8, 5-Butyl-3-(7-(pyrrolidin-1-yl)heptyl)-1H-pyrazolo[4,3-d]pyrimidin-7-amine]
≤ 1260 | ≥ 3980 | CCCCc1nc(N)c2[nH]nc(CCCCCCN3CCCCCC3)c2n1 [Example 9, 3-(6-(Azepan-1-yl)hexyl)-5-butyl-1H-pyrazolo[4,3-d]pyrimidin-7-amine]
≤ 1260 | ≥ 3980 | CCCCc1nc(N)c2[nH]nc(CCCCCN3CCCCCC3)c2n1 [Example 10, 3-(5-(Azepan-1-yl)pentyl)-5-butyl-1H-pyrazolo[4,3-d]pyrimidin-7-amine]

Second part, the molecule before the results:

SMILES | EC50 (Interferon-α) [nM] | EC50 (TNF-α) [nM]
COCCc1nc(N)c2[nH]nc(CCCCCCN3CCCCC3)c2n1 [Example 2, 5-(2-Methoxyethyl)-3-(6-(piperidin-1-yl)hexyl)-1H-pyrazolo[4,3-d]pyrimidin-7-amine] | ≤ 1260 | ≥ 3980
COCCc1nc(N)c2[nH]nc(CCCCCCN3CCCC3)c2n1 [Example 4, 5-(2-Methoxyethyl)-3-(6-(pyrrolidin-1-yl)hexyl)-1H-pyrazolo[4,3-d]pyrimidin-7-amine] | ≤ 1260 | ≥ 3980
CCCCc1nc(N)c2[nH]nc(CCCCCN3CCCC3)c2n1 [Example 6, 5-Butyl-3-(5-(pyrrolidin-1-yl)pentyl)-1H-pyrazolo[4,3-d]pyrimidin-7-amine] | ≤ 1260 | ≥ 3980
CCCCc1nc(N)c2[nH]nc(CCCCCCN3CC[C@H](F)C3)c2n1 [Example 11, (S)-5-Butyl-3-(6-(3-fluoropyrrolidin-1-yl)hexyl)-1H-pyrazolo[4,3-d]pyrimidin-7-amine] | ≤ 1260 | ≥ 3980
CCCCc1nc(N)c2[nH]nc(CCCCCN3CC[C@H](F)C3)c2n1 [Example 12, (S)-5-Butyl-3-(5-(3-fluoropyrrolidin-1-yl)pentyl)-1H-pyrazolo[4,3-d]pyrimidin-7-amine] | ≤ 1260 | ≥ 3980
CCCCc1nc(N)c2[nH]nc(CCCCCCN3CC[C@@H](F)C3)c2n1 [Example 13, (R)-5-Butyl-3-(6-(3-fluoropyrrolidin-1-yl)hexyl)-1H-pyrazolo[4,3-d]pyrimidin-7-amine formate] | ≤ 1260 | ≥ 3980
CCCCc1nc(N)c2[nH]nc(CCCCCN3CC[C@@H](F)C3)c2n1 [Example 14, (R)-5-Butyl-3-(5-(3-fluoropyrrolidin-1-yl)pentyl)-1H-pyrazolo[4,3-d]pyrimidin-7-amine] | ≤ 1260 | ≥ 3980
CCCCc1nc(N)c2[nH]nc(CCCCCCN3CCC(O)CC3)c2n1 [Example 15, 1-(6-(7-Amino-5-butyl-1H-pyrazolo[4,3-d]pyrimidin-3-yl)hexyl)piperidin-4-01] | ≤ 1260 | ≥ 3980
CCCCc1nc(N)c2[nH]nc(CCCCCN3CCC(O)CC3)c2n1 [Example 16, 1-(5-(7-Amino-5-butyl-1H-pyrazolo[4,3-d]pyrimidin-3-yl)pentyl)piperidin-4-01] | ≤ 1260 | ≥ 3980
CCCCc1nc(N)c2[nH]nc(CCCCCCN3CCC(F)CC3)c2n1 [Example 17, 5-Butyl-3-(6-(4-fluoropiperidin-1-yl)hexyl)-1H-pyrazolo[4,3-d]pyrimidin-7-amine formate] | ≤ 1260 | ≥ 3980
CCCCc1nc(N)c2[nH]nc(CCCCCN3CCC(F)CC3)c2n1 [Example 18, 5-Butyl-3-(5-(4-fluoropiperidin-1-yl)pentyl)-1H-pyrazolo[4,3-d]pyrimidin-7-amine] | ≤ 1260 | ≥ 3980
